The values that follow come from patent publication US7585896B2, “Composition for the prevention and treatment of kidney dysfunctions and diseases” (Sigma-Tau Industrie Farmaceutiche Riunite S.p.A., priority 1999, dated 2009).

Test [1] relates to glycerol-induced renal insufficiency in male Sprague-Dawley rats. Nature of the test: Protective activity against glycerol-induced renal insufficiency. The class given is in vivo. The conditions noted are these: for Urea (plasma): glycerol-injected rats, 24 h after injection; for effect on the elevated plasma urea and creatinine concentrations: glycerol-induced acute renal insufficiency, oral or intraperitoneal, result in words.

The next test concerns isolated perfused kidney. The experiment in a line: Protective activity against lithium-induced nephrotoxicity in the isolated perfused kidney (histamine release). The arrangement: species or system Wistar rats. The conditions noted are these: for Percentage changes vs controls in histamine released: lithium 6 mEq/L after 20 min perfusion of carnitine 200 mM/L; for effect on histamine release induced by the renal toxic action of lithium: isolated perfused kidney, result in words. The source says:
This test was used to assess the protective activity of the combination of acetyl L-carnitine plus propionyl L-carnitine against the well-known nephrotoxic activity of lithium. Lithium presents a particular tropism at the renal tubule level and can cause tubular necrosis.
In this test Wistar rates with a mean body weight of 400 g were anaesthetised and nephrectomised. The excised kidneys were perfused according to the technique described by Shureck (Shureck H. J., Pflügers Arch., 354, 1975) as modified by Maach (Maach T., Kidney Int., 30, 142, 1986; Maach T., Ann. J. Physiol., 238, 1980).
Immediately after isolation of the kidney, the renal artery and outflow vein were catheterised and the resulting preparation was placed in a chamber containing a Krebs solution heated to 37° C. The oxygenised Krebs solution was pumped into the system by means of a pulsatile pump at a rate of 0.8 ml/min/g.
Lithium was administered via the perfusion pump at a dose of 6 mEq/L after perfusion during the previous 20 minutes of a solution containing acetyl L-carnitine or propionyl L-carnitine (200 mM/L) or a combination of the two compounds.
After the lithium infusion, the venous perfusion fluid was collected at five-minute intervals for fifteen minutes and its histamine content was measured with a fluorometric method (Hakanson R., Anal. Biochem., 47, 356, 1972). Histamine release is considered a marker of the severity of tubular damage (Bertelli A., Drugs Exptl. Clin Res., 7, 53, 1981).

For test [2], the system named is ochratoxin A-induced renal toxic lesions in Wistar rats. The experiment in a line: Protective activity against renal abnormalities induced by ochratoxin A. The test is classed as in vivo. The settings on record: for ALP (alkaline phosphatase) / GGT (gamma-glutamyl transferase) / NAG (N-acetyl-β-D-glucosaminidase): 24-hour urine, 300 mg/kg (of each drug) oral for 10 days with ochratoxin A; for effect on enzymuria induced by ochratoxin and serum creatinine levels: ochratoxin-intoxicated rats, result in words. The source says: In experimental animals, particularly rats, it is possible to reproduce tubulo-interstitial nephropathy similar to that encountered in man and known as Balkans Endemic Nephropathy (BEN) by means of the administration of a mycotoxin produced by Aspergillus ochraceus which is present as a contaminant in various foodstuffs and is known as ochratoxin A (Kniper-Goodman T., Scott P., Biomed. Environ. Sci., 2, 179, 1989).
The administration of small amounts of this toxin causes a series of renal abnormalities in the rat with a reduction in glomerular filtration and lesions at the level of the proximal tubule to such an extent as to cause renal atrophy.
In this test a batch of Wistar rats with a mean body weight of 200 g was divided into various groups, one of which served as a control group, while another was administered […] of ochratoxin (Sigma Chemical, St. Louis, Mo. U.S.A.) by gastric probe every 48 hours for a period of ten days. The remaining groups, in addition to ochratoxin, also received oral administrations of 300 mg/ks of acetyl L-carnitine or 300 mg/kg of propionyl L-carnitine or a combination of the two carnitines for the entire 10-day treatment period.
At the end of treatment, the animals were placed in metabolic cages and 24-hour urine was submitted to spectrophotometric evaluation of the enzymes alkaline phosphatase (ALP), gamma-glutamyl transferase (GGT) and N-acetyl-β-D-glucosaminidase (NAG) as indicators of renal damage.
Serum creatinine concentrations were also measured.

Setting [3] is: 5 minutes post-lithium-infusion.
The mark [4] stands for this setting: 10 minutes post-lithium-infusion.
[5] abbreviates: 15 minutes post-lithium-infusion.

For the compound `CC(=O)O[C@H](CC(=O)[O-])C[N+](C)(C)C` [ACL, Acetyl L-carnitine], the “Urea (plasma)” value is 104.7 ± 12.4 mg/100 ml in test [1] (100 mg/kg (of each drug) i.p.), 110.9 ± 21.6 mg/100 ml in test [1] (100 mg/kg (of each drug) oral), 98.5 ± 10.6 mg/100 ml in test [1] (500 mg/kg (of each drug) i.p.) and 105.4 ± 29.4 mg/100 ml in test [1] (500 mg/kg (of each drug) oral). Also, in test [1], the “effect on the elevated plasma urea and creatinine concentrations” value is “only slight changes”. Besides, the “Percentage changes vs controls in histamine released” value with isolated perfused kidney (setting [3]) worked out at 55.8 ± 6.1%; in the test on isolated perfused kidney (setting [4]), 36.8 ± 3.1%; with isolated perfused kidney (setting [5]) it was 12.5 ± 1.5%. In addition, in the test with isolated perfused kidney, the “effect on histamine release induced by the renal toxic action of lithium” value is “reduced”. In addition, the “ALP (alkaline phosphatase)” value in test [2] is 8.8 ± 1.1 U/I. The “GGT (gamma-glutamyl transferase)” value in test [2] is recorded as 17.2 ± 1.9 U/I. For the same compound, the “NAG (N-acetyl-β-D-glucosaminidase)” value in test [2] was determined as 48.8 ± 5.1 U/I. Besides, the “effect on enzymuria induced by ochratoxin and serum creatinine levels” value in test [2] is given as “reduced”.
Consider `CCC(=O)O[C@H](CC(=O)[O-])C[N+](C)(C)C` [PC, Propionyl L-carnitine], for which the “Urea (plasma)” value is 100.5 ± 9.8 mg/100 ml in test [1] (100 mg/kg (of each drug) i.p.), 107.4 ± 30.2 mg/100 ml in test [1] (100 mg/kg (of each drug) oral), 80.2 ± 6.6 mg/100 ml in test [1] (500 mg/kg (of each drug) i.p.) and 90.2 ± 31.4 mg/100 ml in test [1] (500 mg/kg (of each drug) oral). For the same compound, in test [1], the “effect on the elevated plasma urea and creatinine concentrations” value is listed as “only slight changes”. For the same compound, the “Percentage changes vs controls in histamine released” value was 45.8 ± 4.5% with isolated perfused kidney (setting [3]), 30.4 ± 2.9% in the test on isolated perfused kidney (setting [4]) and 10.4 ± 0.9% in the test with isolated perfused kidney (setting [5]). Further, the “effect on histamine release induced by the renal toxic action of lithium” value in the test on isolated perfused kidney is recorded as “reduced”. The “ALP (alkaline phosphatase)” value in test [2] was 7.5 ± 0.9 U/I. For the same compound, in test [2], the “GGT (gamma-glutamyl transferase)” value was 16.5 ± 2.2 U/I. Besides, the “NAG (N-acetyl-β-D-glucosaminidase)” value in test [2] came out at 44.2 ± 4.5 U/I. For the same compound, the “effect on enzymuria induced by ochratoxin and serum creatinine levels” value in test [2] was “reduced”.
